The results in this text go back to patent publication US20260262643A1, “HERBICIDAL BENZOXAZINES” (FMC CORPORATION, priority 2022, published 2026).

For test [1], the system named is blackgrass. In words: Test A preemergence. Particulars: 1000 g ai/ha, 0 to 100 scale (0 no effect, 100 complete control), 10 days; for pest or weed control at 1000 g/ha: Alopecurus myosuroides, pre-emergence, 240 h, read-out: Plant response rating, Blackgrass. The test is classed as in vivo, Alopecurus myosuroides. From the text:
(§1) Seeds of plant species selected from barnyardgrass (Echinochloa crusgalli), blackgrass (Alopecurus myosuroides), corn (Zea mays), foxtail, giant (giant foxtail, Setaria faberi), goosegrass (Eleusine indica), kochia (Bassia scoparia), oat, wild (wild oat, Avena fatua), pigweed, palmer (palmer amaranth, palmer pigweed, Amaranthus palmeri), Pigweed, Redroot (redroot pigweed, Amaranthus retroflexus), ragweed (common ragweed, Ambrosia artemisiifolia), ryegrass, Italian (italian ryegrass, Lolium multiflorum), soybean (Glycine max), and wheat (Triticum aestivum) were planted into a blend of loam soil and sand and treated preemergence with a directed soil spray using test chemicals formulated in a non-phytotoxic solvent mixture which included a surfactant. At the same time, plants selected from these crops and weed species and also galium (catchweed bedstraw, Galium aparine) and horseweed (Erigeron canadensis) were planted in pots containing the same blend of loam soil and sand and treated with postemergence applications of test chemicals formulated in the same manner. Plants ranged in height from 2 to 10 cm and were in the one- to two-leaf stage for the postemergence treatment. Treated plants and untreated controls were maintained in a greenhouse for 10 days, after which time all treated plants were compared to untreated controls and visually evaluated for injury. Plant response ratings, summarized in Table A, are based on a 0 to 100 scale where 0 is no effect and 100 is complete control. A dash (-) response means no test result.

In test [2] the test system is foxtail, giant. Kind of test: Test A preemergence. The test is classed as in vivo, Setaria faberi. Particulars: 1000 g ai/ha, 0 to 100 scale (0 no effect, 100 complete control), 10 days; for pest or weed control at 1000 g/ha: Setaria faberi, pre-emergence, 240 h, read-out: Plant response rating, Foxtail, Giant.
Excerpt: as §1

The subject of test [3] is goosegrass. Kind of test: Test A preemergence. The test is classed as in vivo, Eleusine indica. Particulars: 1000 g ai/ha, 0 to 100 scale (0 no effect, 100 complete control), 10 days; for pest or weed control at 1000 g/ha: Eleusine indica, pre-emergence, 240 h, read-out: Plant response rating, Goosegrass.
Excerpt: as §1

Test [4] relates to kochia. Kind of test: Test A preemergence. The conditions noted are these: 1000 g ai/ha, 0 to 100 scale (0 no effect, 100 complete control), 10 days; for pest or weed control at 1000 g/ha: Bassia scoparia, pre-emergence, 240 h, read-out: Plant response rating, Kochia. The test is classed as in vivo, Bassia scoparia.
Excerpt: as §1

In test [5] the test system is pigweed, palmer. In words: Test A preemergence. The test is classed as in vivo, Amaranthus palmeri. Particulars: 1000 g ai/ha, 0 to 100 scale (0 no effect, 100 complete control), 10 days; for pest or weed control at 1000 g/ha: Amaranthus palmeri, pre-emergence, 240 h, read-out: Plant response rating, Pigweed, Palmer.
Excerpt: as §1

The test system of test [6] is ragweed. Kind of test: Test A preemergence. The conditions noted are these: 1000 g ai/ha, 0 to 100 scale (0 no effect, 100 complete control), 10 days; for pest or weed control at 1000 g/ha: Ambrosia artemisiifolia, pre-emergence, 240 h, read-out: Plant response rating, Ragweed. It counts as in vivo, Ambrosia artemisiifolia.
Excerpt: as §1

Test [7] deals with ryegrass, Italian. Kind of test: Test A preemergence. Particulars: 1000 g ai/ha, 0 to 100 scale (0 no effect, 100 complete control), 10 days; for pest or weed control at 1000 g/ha: Lolium multiflorum, pre-emergence, 240 h, read-out: Plant response rating, Ryegrass, Italian. The test is classed as in vivo, Lolium multiflorum.
Excerpt: as §1

Test [8] relates to blackgrass. In words: Test A postemergence. The test is classed as in vivo, Alopecurus myosuroides. The conditions noted are these: 1000 g ai/ha, Postemergence, 0 to 100 scale; for pest or weed control at 1000 g/ha: Alopecurus myosuroides, post-emergence, 240 h, read-out: Plant response rating, Blackgrass.
Excerpt: as §1

Test [9] has as its system foxtail, giant. Kind of test: Test A postemergence. The test is classed as in vivo, Setaria faberi. Particulars: 1000 g ai/ha, Postemergence, 0 to 100 scale; for pest or weed control at 1000 g/ha: Setaria faberi, post-emergence, 240 h, read-out: Plant response rating, Foxtail, Giant.
Excerpt: as §1

Test [10] relates to goosegrass. Kind of test: Test A postemergence. It counts as in vivo, Eleusine indica. Particulars: 1000 g ai/ha, Postemergence, 0 to 100 scale; for pest or weed control at 1000 g/ha: Eleusine indica, post-emergence, 240 h, read-out: Plant response rating, Goosegrass.
Excerpt: as §1

In test [11] the test system is kochia. In words: Test A postemergence. It counts as in vivo, Bassia scoparia. Particulars: 1000 g ai/ha, Postemergence, 0 to 100 scale; for pest or weed control at 1000 g/ha: Bassia scoparia, post-emergence, 240 h, read-out: Plant response rating, Kochia.
Excerpt: as §1

Test [12] has as its system pigweed, palmer. In words: Test A postemergence. The test is classed as in vivo, Amaranthus palmeri. Particulars: 1000 g ai/ha, Postemergence, 0 to 100 scale; for pest or weed control at 1000 g/ha: Amaranthus palmeri, post-emergence, 240 h, read-out: Plant response rating, Pigweed, Palmer.
Excerpt: as §1

Test [13] relates to ragweed. In words: Test A postemergence. The test is classed as in vivo, Ambrosia artemisiifolia. Particulars: 1000 g ai/ha, Postemergence, 0 to 100 scale; for pest or weed control at 1000 g/ha: Ambrosia artemisiifolia, post-emergence, 240 h, read-out: Plant response rating, Ragweed.
Excerpt: as §1

The test system of test [14] is ryegrass, Italian. In words: Test A postemergence. It counts as in vivo, Lolium multiflorum. The conditions noted are these: 1000 g ai/ha, Postemergence, 0 to 100 scale; for pest or weed control at 1000 g/ha: Lolium multiflorum, post-emergence, 240 h, read-out: Plant response rating, Ryegrass, Italian.
Excerpt: as §1

The subject of another test is galium. Kind of test: Test A postemergence. The test is classed as in vivo, Galium aparine. The conditions noted are these: 1000 g ai/ha, Postemergence, 0 to 100 scale; for pest or weed control at 1000 g/ha: Galium, post-emergence, 240 h, read-out: Plant response rating, Galium.
Excerpt: as §1

A further test relates to horseweed. Kind of test: Test A postemergence. The test is classed as in vivo, Erigeron canadensis. The conditions noted are these: 1000 g ai/ha, Postemergence, 0 to 100 scale; for pest or weed control at 1000 g/ha: Erigeron canadensis, post-emergence, 240 h, read-out: Plant response rating, Horseweed.
Excerpt: as §1

Another test relates to barnyardgrass. Kind of test: Test B flooded paddy test. The test is classed as in vivo, Echinochloa crus-galli. The conditions noted are these: 250 g ai/ha, Flood, 13 days, 0 to 100 scale (0 no effect, 100 complete control); for pest or weed control at 250 g/ha: Echinochloa crus-galli, 312 h, read-out: Plant response rating, Barnyardgrass. As to the method:
(§2) Plant species in the flooded paddy test selected from barnyardgrass (Echinochloa crus-galli), ducksalad (Heteranthera limosa), rice (Oryza sativa), and sedge, umbrella (small-flower umbrella sedge, Cyperus difformis) were grown to the 2-leaf stage for testing. At time of treatment, test pots were flooded to 3 cm above the soil surface, treated by application of test compounds directly to the paddy water, and then maintained at that water depth for the duration of the test. Treated plants and controls were maintained in a greenhouse for 13 days, after which time all species were compared to controls and visually evaluated. Plant response ratings, summarized in Table B, are based on a scale of 0 to 100 where 0 is no effect and 100 is complete control. A dash (-) response means no test result.

The test system of a further test is ducksalad. In words: Test B flooded paddy test. The test is classed as in vivo, Heteranthera limosa. Particulars: 250 g ai/ha, Flood, 13 days, 0 to 100 scale (0 no effect, 100 complete control); for pest or weed control at 250 g/ha: Heteranthera limosa, 312 h, read-out: Plant response rating, Ducksalad. As to the method: as §2
In a further test the test system is rice. In words: Test B flooded paddy test. The test is classed as in vivo, Oryza sativa. The conditions noted are these: 250 g ai/ha, Flood, 13 days, 0 to 100 scale (0 no effect, 100 complete control); for plant injury at 250 g/ha: Oryza sativa, 312 h, read-out: Plant response rating, Rice. As to the method:
as §2

The subject of the next test is sedge, umbrella. In words: Test B flooded paddy test. The test is classed as in vivo, Cyperus difformis. Particulars: 250 g ai/ha, Flood, 13 days, 0 to 100 scale (0 no effect, 100 complete control); for pest or weed control at 250 g/ha: Cyperus difformis, 312 h, read-out: Plant response rating, Sedge, Umbrella. As to the method:
as §2

In the case of `Cc1cc(C(=O)N2CC(C)Oc3c(Cl)cccc32)cc(-n2cncn2)c1` (centres unmarked) [Compound 32], the “Plant response rating, Blackgrass” value in the test on blackgrass [1] and with blackgrass [8] was 80 in each case. Besides, the “Plant response rating, Foxtail, Giant” value with foxtail, giant [2] is recorded as 100; in the test on foxtail, giant [9] it was 100. Further, the “Plant response rating, Goosegrass” value in the test on goosegrass [3] worked out at 100; with goosegrass [10], 80. The “Plant response rating, Kochia” value in the test with kochia [4] came to 30; in the test on kochia [11], 60. Besides, the “Plant response rating, Pigweed, Palmer” value is listed as 90 with pigweed, palmer [5] and 70 with pigweed, palmer [12]. Also, the “Plant response rating, Ragweed” value with ragweed [6] came to 0; in the test with ragweed [13], 20. The “Plant response rating, Ryegrass, Italian” value with ryegrass, Italian [7] was determined as 100; with ryegrass, Italian [14], 90. Moreover, the “Plant response rating, Galium” value in the test on galium is 100. Moreover, the “Plant response rating, Horseweed” value in the test on horseweed came to 0. The “Plant response rating, Barnyardgrass” value in the test on barnyardgrass was 0. Besides, in the test on ducksalad, the “Plant response rating, Ducksalad” value is given as 0. Further, in the test on rice, the “Plant response rating, Rice” value came to 0. In the test on sedge, umbrella, the “Plant response rating, Sedge, Umbrella” value is listed as 0.
In the case of `Cc1ccc(-n2cncn2)cc1C(=O)N1CC(C)Oc2c(Cl)cccc21` (centres unmarked) [Compound 33], the figures for the “Plant response rating, Blackgrass” value with blackgrass [1] and in the test with blackgrass [8] were 100 and 90, respectively. For the same compound, the “Plant response rating, Foxtail, Giant” value with foxtail, giant [2] is on record as 100; with foxtail, giant [9] it was 100. The “Plant response rating, Goosegrass” value with goosegrass [3] came out at 100; in the test with goosegrass [10] it was 90. Besides, the “Plant response rating, Kochia” value in the test on kochia [4] and in the test with kochia [11] was 70 each time. The “Plant response rating, Pigweed, Palmer” value with pigweed, palmer [5] is 100; in the test with pigweed, palmer [12] it was 100. For the same compound, the results for the “Plant response rating, Ragweed” value with ragweed [6] and in the test with ragweed [13] were 100 and 80, respectively. Besides, the “Plant response rating, Ryegrass, Italian” value is 100 with ryegrass, Italian [7] and 100 in the test with ryegrass, Italian [14]. Further, the “Plant response rating, Galium” value in the test on galium was found to be 100. In the test on horseweed, the “Plant response rating, Horseweed” value is 30. Also, in the test on barnyardgrass, the “Plant response rating, Barnyardgrass” value amounted to 30. Besides, in the test with ducksalad, the “Plant response rating, Ducksalad” value was found to be 30. For the same compound, the “Plant response rating, Rice” value in the test on rice worked out at 0. Moreover, the “Plant response rating, Sedge, Umbrella” value with sedge, umbrella is 65.
Turning to `C[C@H]1CN(C(=O)c2cccc(-c3cnn(C)c3)c2)c2cccc(Cl)c2O1` [Compound 119, [(2S)-8-Chloro-2,3-dihydro-2-methyl-4H-1,4-benzoxazin-4-yl][3-(1-methyl-1H-pyrazol-4-yl)phenyl]methanone], the pest or weed control at 1000 g/ha in the test with blackgrass [1] amounted to 70%; with foxtail, giant [2], 100%; with goosegrass [3], 90%; in the test on kochia [4] it was 10%; in the test with pigweed, palmer [5], 90%; in the test on ragweed [6], 90%. Further, the pest or weed control at 1000 g/ha with ryegrass, Italian [7] is 50%; in the test with blackgrass [8], 70%; in the test with foxtail, giant [9], 90%; with goosegrass [10] it was 70%; in the test on kochia [11], 90%; in the test on pigweed, palmer [12], 80%. Further, the pest or weed control at 1000 g/ha in the test with ragweed [13] was 70%; in the test with ryegrass, Italian [14], 20%; with galium it was 90%; in the test with horseweed, 0%. For the same compound, the pest or weed control at 250 g/ha with barnyardgrass was 0%; in the test on ducksalad it was 0%; in the test with sedge, umbrella it was 0%. In addition, in the test on rice, the plant injury at 250 g/ha is 0%.
As for `Cc1cccc2c1O[C@H](C(F)(F)F)CN2C(=O)c1cccc(-n2cncn2)c1` (single isomer, unassigned) [Compound 58], the pest or weed control at 1000 g/ha with blackgrass [1] is 40%; in the test on foxtail, giant [2], 80%; with goosegrass [3], 90%; in the test on kochia [4], 20%; in the test on pigweed, palmer [5] it was 80%; in the test on ragweed [6] it was 0%. Moreover, the pest or weed control at 1000 g/ha in the test on ryegrass, Italian [7] was 90%; in the test on blackgrass [8], 20%; in the test with foxtail, giant [9], 30%; in the test with goosegrass [10], 20%; in the test on kochia [11], 60%; in the test on pigweed, palmer [12], 20%. Also, the pest or weed control at 1000 g/ha came out at 10% with ragweed [13]; 30% with ryegrass, Italian [14]; 60% with galium; 0% in the test with horseweed. Further, the pest or weed control at 250 g/ha in the test on barnyardgrass worked out at 0%; with ducksalad it was 0%; with sedge, umbrella it was 0%. Also, the plant injury at 250 g/ha in the test with rice came out at 0%.
